Biological target: NA of A/Washington/01/2007 A(H3N2), WT (Influenza A virus, UniProt A7UPN3)
Test: biochemical

With CC(=O)N[C@H]1[C@H]([C@H](O)[C@H](O)CO)OC(C(=O)O)=C[C@@H]1N=C(N)N [Zanamivir, zanamivir] the IC50 was 1.1 ± 0.1 nM.

— paper PMC10528385 (Antiviral research, 2023)
